Results reported in patent US8420852B2, “Phospholipase A2 inhibitors and their use in treating neurological injury and disease” (The Regents of the University of California, priority 2007, dated 2013).
Entries after “also recorded” stand apart in the source; their conditions may differ.

Columns and labels:
[1] = test system: BALB/c mice with spinal cord contusion; assay: spinal cord contusion (SCI) model, locomotor recovery and histology; format: in vivo, mouse
sPLA2 (GV) = target: T1, sPLA2 (GV) (Homo sapiens, UniProt P39877); assay: sPLA2 inhibition assay; format: biochemical; conditions: at 0.091 mol fraction
T1 sequence (P39877 21-138): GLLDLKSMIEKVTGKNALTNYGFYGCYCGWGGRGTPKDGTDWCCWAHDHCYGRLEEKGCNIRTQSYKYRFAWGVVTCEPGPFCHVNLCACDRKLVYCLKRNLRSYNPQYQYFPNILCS
Protocol: The compounds described herein were tested for inhibition of PLA2s in in vitro assay systems. The data, summarized in the Examples, are represented as XI(50) values unless otherwise noted. XI(50) is defined as the inhibitor concentration that produced 50% inhibition. XI(50) is used as opposed to the more common IC50 because GIVA and GVIA PLA2 are active at a two-dimensional lipid interface rather than in three-dimensional solution. (Deems, Anal. Biochem., 287:1-16, 2000). For the groups that received delayed treatment after symptoms occurred, mice were treated with daily intraperitoneal injections of AX059 starting from the first day of clinical symptoms, beginning on day 11; and AX115 starting from the first day of clinical peak (i.e., score 4), beginning of day 14. All inhibitors were administered for 2 weeks. The selectivity of the compounds for the different PLA2s is shown as the percentage inhibition in Table 1. The XI(50) is the mole fraction of the inhibitor in the total substrate interface required to inhibit the enzyme by 50%. PLA2 inhibitors. It has been previously reported that long chain 2-oxoamides based on gamma-amino acids are potent inhibitors of cPLA2 (GIVA). […] A 2-oxoamide based on a glycine methyl ester, AX115, inhibits sPLA2 (GV) as well as cPLA2 (GIVA) and iPLA2 (GVIA). […]

[2] = test system: SJL/J mice induced with EAE; assay: EAE model of multiple sclerosis, clinical score; format: in vivo, mouse
GIIA PLA2 = target: T2, GIIA PLA2 (Homo sapiens, UniProt P14555); assay: vesicle assay for GIIA PLA2; format: biochemical
T2 sequence (P14555 21-144): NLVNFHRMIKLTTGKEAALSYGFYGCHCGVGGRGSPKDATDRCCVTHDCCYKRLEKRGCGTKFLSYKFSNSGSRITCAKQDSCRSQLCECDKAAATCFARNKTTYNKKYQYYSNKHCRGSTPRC
Description: Vesicle assays have generally been employed for this enzyme, but they have limitations for in vitro comparison of inhibitor potency.

iPLA2 (GVIA) = target: T3, iPLA2 (GVIA) (Homo sapiens, UniProt O60733); assay: standard iPLA2 (GVIA) activity assay, DPPC/Triton X-100 mixed micelles; format: biochemical; conditions: at 0.091 mol fraction
T3 sequence (O60733 1-806): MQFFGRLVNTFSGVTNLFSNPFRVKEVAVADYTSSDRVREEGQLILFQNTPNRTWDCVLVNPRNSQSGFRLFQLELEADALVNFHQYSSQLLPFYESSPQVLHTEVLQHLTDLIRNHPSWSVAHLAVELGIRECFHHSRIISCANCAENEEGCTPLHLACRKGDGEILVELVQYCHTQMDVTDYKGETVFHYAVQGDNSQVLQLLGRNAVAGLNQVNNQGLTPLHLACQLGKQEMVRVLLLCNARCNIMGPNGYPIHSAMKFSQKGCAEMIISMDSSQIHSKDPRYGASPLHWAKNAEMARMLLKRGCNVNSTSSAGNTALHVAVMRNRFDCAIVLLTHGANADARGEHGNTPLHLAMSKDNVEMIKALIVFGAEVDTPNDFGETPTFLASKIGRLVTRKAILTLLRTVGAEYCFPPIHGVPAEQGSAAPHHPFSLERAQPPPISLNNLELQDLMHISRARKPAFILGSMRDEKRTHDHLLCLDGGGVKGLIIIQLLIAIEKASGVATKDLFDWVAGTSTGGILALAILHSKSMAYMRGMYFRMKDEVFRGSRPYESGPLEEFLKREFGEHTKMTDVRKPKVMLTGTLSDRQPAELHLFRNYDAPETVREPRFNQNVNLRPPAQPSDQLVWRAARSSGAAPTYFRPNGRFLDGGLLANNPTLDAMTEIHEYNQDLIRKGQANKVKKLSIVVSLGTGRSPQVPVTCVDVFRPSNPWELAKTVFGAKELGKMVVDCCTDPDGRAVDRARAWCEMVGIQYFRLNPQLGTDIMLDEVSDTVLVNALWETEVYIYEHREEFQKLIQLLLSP
Protocol: The compounds described herein were tested for inhibition of PLA2s in in vitro assay systems. The data, summarized in the Examples, are represented as XI(50) values unless otherwise noted. XI(50) is defined as the inhibitor concentration that produced 50% inhibition. XI(50) is used as opposed to the more common IC50 because GIVA and GVIA PLA2 are active at a two-dimensional lipid interface rather than in three-dimensional solution. (Deems, Anal. Biochem., 287:1-16, 2000).
For the groups that received delayed treatment after symptoms occurred, mice were treated with daily intraperitoneal injections of AX059 starting from the first day of clinical symptoms, beginning on day 11; and AX115 starting from the first day of clinical peak (i.e., score 4), beginning of day 14. All inhibitors were administered for 2 weeks. The selectivity of the compounds for the different PLA2s is shown as the percentage inhibition in Table 1. The XI(50) is the mole fraction of the inhibitor in the total substrate interface required to inhibit the enzyme by 50%.
Compound AX115 was tested for its ability to inhibit human cPLA2 (GIVA) in a cPLA2 (GIVA) specific assay that uses mixed micelles of the substrate 1-palmitoyl-2-arachidonyl phosphatidylcholine and the detergent Triton X-100 (97:3) containing phosphatidylinositol 4,5-bisphosphate (400 μM) as previously described. […]

SMILES: CCCCCCCCCCCCCCC(=O)C(=O)NCC(=O)OC [AX115]
- neuron survival in ventral horn (cresyl violet) ([1]; 300 to 1000 μm rostral and caudal to lesion epicenter, 28 dpi, vs vehicle): significantly greater neuron survival; also recorded: significantly better survival of ventral horn neurons; also recorded: greater number of neuronal profiles
- serotonergic innervation ([1]; 1000 μm caudal to lesion epicenter, 28 dpi, vs vehicle): significantly greater serotonergic innervation; also recorded: marked increase of serotonergic fibers
- BMS score ([1]; 28 days after SCI, vehicle 4.6, 9-point scale): 6.6
- locomotor function (BMS scores) vs vehicle treated injured mice ([1]; daily i.p. 6.85 mg/kg from 1 h after contusion for 14 days, significant from 5 dpi, 6.85 mg/kg): marked improvement in the BMS scores; also recorded: markedly improved locomotor function
- myelin loss (Luxol fast blue) ([1]; epicenter and 300 μm rostral and caudal, 28 dpi, vs vehicle): marked reduction of myelin loss
- tissue sparing (GFAP staining) ([1]; lesion epicenter and adjacent regions, 28 dpi, vs vehicle): significant amount of tissue sparing; also recorded: significant tissue protection; also recorded: marked reduction in tissue loss
- improvement in BMS subscores (fine locomotor control) ([1]; vs vehicle): 4 points
- increase in the density of 5-HT fibers within the lateral funiculi and ventral horns ([1]; vs vehicle): 3 fold
- Inhibition sPLA2 GIVA/GV* (sPLA2 (GV)): 52%
- mean maximal peak clinical grade at day 17 ([2]; delayed treatment from peak of first attack, did not differ from vehicle): ~3
- clinical score on day 35 ([2]; delayed treatment from peak of first attack, vehicle 2.3): 2.8
- clinical score on day 23 ([2]; delayed treatment from peak of first attack, vehicle about 1.4): 2.5
- clinical course of EAE vs vehicle control ([2]; delayed treatment from peak of first clinical attack (day 14), daily i.p.): prevents remission of the disease; also recorded: remission was prevented; also recorded: worsened the disease
- clinical course of EAE vs vehicle control ([2]; treatment before onset of symptoms, from day 5/6 after immunization, daily for 3 weeks): no statistical significance; also recorded: did not differ from vehicle treated control mice; also recorded: did not substantially differ from vehicle treated controls
- inhibition of GIIA compared with GV PLA2 (GIIA PLA2): comparable inhibition
- Inhibition iPLA2GIVA (iPLA2 (GVIA)): 45%
